Measurements as given in patent US20030022243A1, “Protein aggregation assays and uses thereof” (priority 2001, published 2003).
Each block holds one molecule with its values, some of them ahead of it.

Tests used:
Assay type in all cases: biochemical
[1] = molecular target: Zinc-deficient SOD-1 (Homo sapiens, UniProt P00441); experiment: MCO-induced aggregation of zinc-deficient SOD-1, light scattering; details: 37° C.
Protocol: Apo-SOD-1 was incubated in the presence of a 1.1-fold molar excess of CuCl2 in 17 mM sodium acetate buffer, pH 3.8, for 24 hours at 40° C.
Zinc-deficient SOD-1 was prepared, MCO-treated, and used to test various compounds and conditions for their effect on SOD-1 aggregation. Zinc-deficient SOD-1 aggregation mixtures were incubated with either 2 mM EDTA, 10 mM mannitol, or 10 mM DMPO as probes for the reactive oxygen species. Anaerobic conditions were achieved by degassing all solutions and oxidizing under vacuum (37° C.) in a vacuum hydrolysis tube (Pierce). Aggregates were detected using light scattering measurements made with a Photon Technology International QM-1 fluorescence spectrophotometer. Excitation and emission wavelengths were set to 350 nm (bandpass=4 nm).

[2] = molecular target: T1, SOD-1, from human erythrocytes (Homo sapiens, UniProt P00441); experiment: MCO (ascorbate/Cu)-induced SOD-1 aggregation, right angle light scattering
T1 construct: SOD-1 was purchased from Sigma (purified from erythrocytes) and dissolved in the appropriate buffer; purchased Sigma-Aldrich Fine Chemicals (St. Louis, Mo., USA); host or cells: human erythrocytes
T1 sequence (P00441 2-154 limits assumed): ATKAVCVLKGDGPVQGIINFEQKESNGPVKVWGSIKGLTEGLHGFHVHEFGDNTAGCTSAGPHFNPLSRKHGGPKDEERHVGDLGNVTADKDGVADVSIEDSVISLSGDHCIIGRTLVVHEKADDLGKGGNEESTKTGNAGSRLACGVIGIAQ
Protocol: The effect of pH, copper ions, and ascorbic acid on the induction of SOD-1 aggregation was examined as follows. […] Right angle light scattering was measured at room temperature using a Photon Technology International QM-1 fluorescence spectrophotometer. Both the excitation and emission wavelengths were set to 350 nm and a 1 nm bandpass. A cuvette with an excitation and emission path lengths of 2 mm and 10 mm, respectively was used for the measurements.
In addition, right angle light scattering was measured using a DynaPro99 Molecular Sizing Instrument with attached MicroSampler-MSXTC/12 (Protein Solutions, Inc., Charlottesville, Va.). A 12 μl-DynaPro quartz cuvette with a path length of 1.5 mm was used for all experiments. In the measurement, the SOD-1 sample solution was illuminated by a 60 mW, 825 nm solid-state laser, and the intensity of light scattered at a 90° angle was measured directly as the solution photon count rate in units of kcounts/sec. The averaged count rate was automatically calculated after all acquisitions of the measurements.

[3] = molecular target: apo-SOD-1 (Homo sapiens, UniProt P00441); experiment: Native state stabilization assay (thermal aggregation of apo-SOD-1, RP-HPLC of soluble SOD-1); details: apo-SOD-1 incubated at 60° C. with exogenous metal
Sequence of apo-SOD-1 (P00441 2-154 limits assumed): as above
Protocol: Apo-SOD-1 was prepared from holo-SOD-1 as reported (Crow et al., J. Neurochem., 69:1936, 1997). Holo-SOD-1 was first extensively dialyzed against 10 mM sodium acetate buffer containing 1 mM EDTA, pH 3.8 for 24-72 hours, then dialyzed against 10 mM sodium acetate buffer containing 100 mM NaCl, pH 3.8, and finally dialyzed against the desired buffer.
For FIG. 17, apo-SOD-1 (100 μl) prepared as described above at a concentration of 30 μM in 10 mM sodium acetate buffer, pH 5.0, was incubated for 24 hours at either 4°, 37°, or 60° C. in sealed polypropylene tubes. […] RP-HPLC was carried out on a Zorbax SB300 C8 column (3.0×10 cm, 3.5 μm particle size) using a linear 4% B per min AB gradient at a flow rate of 1.0 ml/min, where A was 0.1% aqueous TFA and B was 0.1% TFA in acetonitrile. Detection was based on UV absorbance at 215 nm. In contrast, the sample incubated at 60° C. contained essentially no soluble SOD-1 in the supernatant as measured by the same method of analysis.
An example of the use of the native state stabilization assay to test agents for inhibition of aggregation can be found in FIG. 18. Apo-SOD-1 samples were incubated under various conditions and analyzed by RP-HPLC to quantitate amounts of soluble SOD-1 remaining. Apo-SOD-1 incubated at 4° C. […] (positive aggregation control; chromatogram a). […]

[4] = 10 mM free radical scavenger in the oxidation reaction

Sequence of Zinc-deficient SOD-1 (P00441 2-154 limits assumed): as above

Compound: OC[C@@H](O)[C@@H](O)[C@H](O)[C@H](O)CO [mannitol]
inhibition of MCO-induced aggregation (light scattering) [1, 4]: did not inhibit aggregation

Compound: [Zn] [zinc]
soluble SOD-1 remaining versus apo-SOD-1 without exogenous metal (RP-HPLC) [3]: significantly more soluble SOD-1

Compound: [Cu] [copper]
soluble SOD-1 remaining versus apo-SOD-1 without exogenous metal (RP-HPLC) [3]: significantly more soluble SOD-1

The next lines start with the values.

inhibition of MCO-induced aggregation (light scattering) ([1]; 2 mM EDTA in the oxidation reaction): inhibited aggregation
Compound: O=C(O)CN(CCN(CC(=O)O)CC(=O)O)CC(=O)O [EDTA]

induction of SOD-1 aggregates ([2]; 25 μM CuCl2 in 10 mM sodium phosphate, no ascorbic acid, 38 hours): no aggregates of SOD-1 were induced
relative amount of aggregation induced by ascorbic acid ([2]; addition of 25 μM CuCl2 to 2 mM ascorbic acid): significantly enhanced
Compound: [Cl][Cu][Cl] [CuCl2]

inhibition of MCO-induced aggregation (light scattering) [1, 4]: did not inhibit aggregation
Compound: CC1(C)CCC=[N+]1[O-] [DMPO]

induction of SOD-1 aggregates detectable by right angle light scattering ([2]; 2 mM ascorbic acid, 10 mM phosphate buffer pH 6, 37° C., 38 hours): resulted in the formation of aggregates
Compound: O=C1O[C@H]([C@@H](O)CO)C(O)=C1O [ascorbic acid]
